{"source": "paper PMC10447463", "about": "“Data-mining unveils structure–property–activity correlation of viral infectivity enhancing self-assembling peptides” (Nature Communications, 2023)", "key": {"[1]": {"format": "physicochemical", "conditions": "for ThT Cat. / ThT-Fluorescence (categorical): ThT-active if fluorescence at least twice the control", "method_in_brief": "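Preformed peptide fibrils (1 mg/mL) mixed with 50 µM ThT in PBS, 15 min at RT, fluorescence ex 440/em 488 nm versus PBS blank, triplicates. Zeta potential: peptides at 1 mg/mL in PBS pH 7.4, aged 1 d at RT, diluted in 1 mM KCl, Smoluchowski from electrophoretic mobility.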"}, "[2]": {"test": "Conversion rate (CR) assay with fluorescamine", "format": "physicochemical", "parameters": "key to CR: % = 100−100×filtrate/original fluorescence intensity", "conditions": "for CR / %: Fig. S7 panel B; for CR / % / CR: conversion rate", "method_in_brief": "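β-sheet content came from ATR FT-IR spectra of lyophilized 1 mg/mL nanofibril solution (64 scans, 2 cm^-1 resolution). Conversion was measured by separating free monomer with a 3 kDa cutoff filter, then comparing fluorescamine fluorescence (ex 365/em 470 nm, 20 min RT) of filtrate versus unfiltered sample, in triplicate.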"}}, "note": "Where two headings read alike, the source gives them in different places."}
{"substance": "QCKIKQIINMWQ [reference compound]", "values": [{"measurement": "Tht category (> 2 to blank = +)", "setting": "[1]; Fig S10 panel D", "value": "1 (ThT. Cat is 1, if Rel. ThT >2)"}, {"measurement": "ThT Cat.", "setting": "[1]; Fig S10 panel E", "value": "1 (ThT. Cat is 1, if Rel. ThT >2)"}, {"measurement": "ThT Cat,", "setting": "[1]; ThT category, 1 if Rel. ThT >2", "value": "1 (ThT. Cat is 1, if Rel. ThT >2)"}, {"measurement": "ThT Cat.", "setting": "[1]; ThT category, 1 if Rel. ThT >2", "value": "1 (ThT. Cat is 1, if Rel. ThT >2)"}, {"measurement": "Tht rel to blank (42.1851851851852)", "setting": "[1]; ThT fluorescence relative to blank (42.1851851851852 a.u.)", "value": 3.802}, {"measurement": "Tht rel to blank (42.1851851851852)", "setting": "[1]; ThT fluorescence relative to blank, blank = 42.1851851851852", "value": 3.802}, {"measurement": "ThT Cat. / ThT-Fluorescence (categorical)", "setting": "[1]", "value": "1 (ThT. Cat is 1, if Rel. ThT >2)"}, {"measurement": "Tht category (> 1.5 to blank = +)", "setting": "[1]; category 1/0", "value": "1 (ThT. Cat is 1, if Rel. ThT >2)"}, {"measurement": "Tht rel to blank (42.1851851851852)", "setting": "[1]; relative to blank 42.1851851851852 a.u.", "value": 3.802}, {"measurement": "Conversion Rate / %", "setting": "[2]", "value": 76.98, "unit": "%"}, {"measurement": "CR / %", "setting": "[2]; fluorescamine assay", "value": 77, "unit": "%"}, {"measurement": "CR", "setting": "[2]; fluorescamine assay", "value": 76.98}, {"measurement": "Conversion Rate / %", "setting": "[2]; fluorescamine assay", "value": 76.98, "unit": "%"}]}
{"substance": "MDQMDQMDQMDQMDQ", "values": [{"measurement": "Tht category (> 2 to blank = +)", "setting": "[1]; Fig S10 panel D", "value": "0 (ThT-inactive (N-Fold <2))"}, {"measurement": "ThT Cat.", "setting": "[1]; Fig S10 panel E", "value": "0 (ThT-inactive (N-Fold <2))"}, {"measurement": "Tht category (> 2 to blank = +)", "setting": "[1]; FigS12 panel A", "value": "0 (ThT-inactive (N-Fold <2))"}, {"measurement": "ThT Cat,", "setting": "[1]; FigS12 panel B", "value": "0 (ThT-inactive (N-Fold <2))"}, {"measurement": "ThT Cat,", "setting": "[1]; ThT category, 1 if Rel. ThT >2", "value": "0 (ThT-inactive (N-Fold <2))"}, {"measurement": "ThT Cat.", "setting": "[1]; ThT category, 1 if Rel. ThT >2", "value": "0 (ThT-inactive (N-Fold <2))"}, {"measurement": "ThT Cat. / ThT-Fluorescence (categorical)", "setting": "[1]", "value": "0 (ThT-inactive (N-Fold <2))"}, {"measurement": "CR / %", "setting": "[2]; fluorescamine assay", "value": 53, "unit": "%"}, {"measurement": "CR", "setting": "[2]; fluorescamine assay", "value": 53.03}]}
{"substance": "HLHLPLL", "values": [{"measurement": "Tht category (> 2 to blank = +)", "setting": "[1]; Fig S10 panel D", "value": "0 (ThT-inactive (N-Fold <2))"}, {"measurement": "ThT Cat.", "setting": "[1]; Fig S10 panel E", "value": "0 (ThT-inactive (N-Fold <2))"}, {"measurement": "Tht category (> 2 to blank = +)", "setting": "[1]; FigS12 panel A", "value": "0 (ThT-inactive (N-Fold <2))"}, {"measurement": "ThT Cat,", "setting": "[1]; FigS12 panel B", "value": "0 (ThT-inactive (N-Fold <2))"}, {"measurement": "ThT Cat,", "setting": "[1]; ThT category, 1 if Rel. ThT >2", "value": "0 (ThT-inactive (N-Fold <2))"}, {"measurement": "ThT Cat.", "setting": "[1]; ThT category, 1 if Rel. ThT >2", "value": "0 (ThT-inactive (N-Fold <2))"}, {"measurement": "ThT Cat. / ThT-Fluorescence (categorical)", "setting": "[1]", "value": "0 (ThT-inactive (N-Fold <2))"}, {"measurement": "CR / %", "setting": "[2]; fluorescamine assay", "value": 37.5, "unit": "%"}, {"measurement": "CR", "setting": "[2]; fluorescamine assay", "value": 37.51}]}
{"substance": "CKFQC", "values": [{"measurement": "Tht category (> 2 to blank = +)", "setting": "[1]; Fig S10 panel D", "value": "0 (ThT-inactive (N-Fold <2))"}, {"measurement": "ThT Cat.", "setting": "[1]; Fig S10 panel E", "value": "0 (ThT-inactive (N-Fold <2))"}, {"measurement": "Tht category (> 2 to blank = +)", "setting": "[1]; FigS12 panel A", "value": "0 (ThT-inactive (N-Fold <2))"}, {"measurement": "ThT Cat,", "setting": "[1]; FigS12 panel B", "value": "0 (ThT-inactive (N-Fold <2))"}, {"measurement": "ThT Cat,", "setting": "[1]; ThT category, 1 if Rel. ThT >2", "value": "0 (ThT-inactive (N-Fold <2))"}, {"measurement": "ThT Cat.", "setting": "[1]; ThT category, 1 if Rel. ThT >2", "value": "0 (ThT-inactive (N-Fold <2))"}, {"measurement": "ThT Cat. / ThT-Fluorescence (categorical)", "setting": "[1]", "value": "0 (ThT-inactive (N-Fold <2))"}, {"measurement": "CR / %", "setting": "[2]; fluorescamine assay", "value": 33.2, "unit": "%"}, {"measurement": "CR", "setting": "[2]; fluorescamine assay", "value": 33.24}]}
